In ChEMBL document CHEMBL2203046, “Discovery of a novel non-steroidal GR antagonist with in vivo efficacy in the olanzapine-induced weight gain model in the rat” (Bioorg Med Chem Lett, 2012):

Key:
Glucocorticoid receptor [1] = molecular target: T1, Glucocorticoid receptor (Homo sapiens, UniProt P04150); test: Displacement of [3H]dexamethasone from human recombinant glucocorticoid receptor expressed in baculovirus after 18 hrs by scintillation counting analysis
T1 sequence (P04150 whole entry): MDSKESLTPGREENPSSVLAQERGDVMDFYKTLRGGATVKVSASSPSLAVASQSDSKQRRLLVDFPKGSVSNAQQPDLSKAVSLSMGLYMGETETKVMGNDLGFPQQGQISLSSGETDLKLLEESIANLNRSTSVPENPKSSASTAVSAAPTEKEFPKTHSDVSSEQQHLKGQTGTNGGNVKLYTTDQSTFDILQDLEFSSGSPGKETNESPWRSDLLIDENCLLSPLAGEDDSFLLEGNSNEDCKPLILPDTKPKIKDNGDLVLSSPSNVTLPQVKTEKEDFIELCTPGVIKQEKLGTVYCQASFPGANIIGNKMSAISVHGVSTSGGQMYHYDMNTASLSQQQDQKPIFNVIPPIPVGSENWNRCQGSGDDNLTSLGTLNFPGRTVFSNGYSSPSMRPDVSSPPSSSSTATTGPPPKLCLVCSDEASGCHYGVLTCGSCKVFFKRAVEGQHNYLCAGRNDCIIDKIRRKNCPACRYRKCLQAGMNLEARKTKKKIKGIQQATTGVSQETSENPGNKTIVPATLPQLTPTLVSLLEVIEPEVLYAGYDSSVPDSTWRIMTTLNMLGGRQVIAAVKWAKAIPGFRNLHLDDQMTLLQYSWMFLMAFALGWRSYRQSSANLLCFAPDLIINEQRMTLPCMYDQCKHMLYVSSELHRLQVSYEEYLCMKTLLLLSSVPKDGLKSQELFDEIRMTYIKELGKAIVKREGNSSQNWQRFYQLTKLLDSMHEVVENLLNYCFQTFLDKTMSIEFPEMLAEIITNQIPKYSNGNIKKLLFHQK

Glucocorticoid receptor [2] = molecular target: T1, Glucocorticoid receptor; test: Antagonist activity at glucocorticoid receptor in human SW1353 cells assessed as inhibition of dexamethasone-induced luciferase expression after 16 hrs by MMTV5 reporter gene assay; format: functional, cell-based
Cytochrome P450 1A2 = molecular target: T2, Cytochrome P450 1A2 (Homo sapiens, UniProt P05177); test: Inhibition of human CYP1A2; format: ADME
T2 sequence (P05177 whole entry): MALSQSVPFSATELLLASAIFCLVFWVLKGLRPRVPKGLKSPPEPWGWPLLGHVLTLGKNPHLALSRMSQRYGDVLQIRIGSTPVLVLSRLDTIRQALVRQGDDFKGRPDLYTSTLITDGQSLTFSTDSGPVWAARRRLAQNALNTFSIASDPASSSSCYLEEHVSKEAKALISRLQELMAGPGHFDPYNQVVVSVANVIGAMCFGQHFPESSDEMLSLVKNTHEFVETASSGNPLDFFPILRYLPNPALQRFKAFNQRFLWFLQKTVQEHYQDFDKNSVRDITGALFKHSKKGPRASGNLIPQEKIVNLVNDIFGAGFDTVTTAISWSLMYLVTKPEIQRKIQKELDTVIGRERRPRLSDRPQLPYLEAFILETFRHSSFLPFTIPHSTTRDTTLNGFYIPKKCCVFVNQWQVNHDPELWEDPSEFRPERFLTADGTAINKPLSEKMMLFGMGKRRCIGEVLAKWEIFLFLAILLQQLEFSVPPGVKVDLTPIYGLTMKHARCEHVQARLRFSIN

[3] = Half life in rat at 1 mg/kg, iv; format: ADME, organism-based; set-up: dose 1 mg/kg, route intravenous; conditions: in vivo
Rattus norvegicus [4] = test: Antagonist activity at glucocorticoid receptor in Sprague-Dawley rat assessed as change in olanzapine-induced weight gain at 0.6 mg/kg/day, po administered as divided doses twice daily for 21 days (Rvb =+ 36.5 +/- 10 g); format: functional
Cytochrome P450 3A4 = Cytochrome P450 3A4 (Homo sapiens, UniProt P08684); test: Inhibition of human CYP3A4; format: ADME
Cytochrome P450 2D6 = Cytochrome P450 2D6 (Homo sapiens, UniProt P10635); test: Inhibition of human CYP2D6; format: ADME
Rattus norvegicus [5] = test: Antagonist activity at glucocorticoid receptor in Sprague-Dawley rat assessed as change in olanzapine-induced weight gain at 6 mg/kg/day, po administered as divided doses twice daily for 21 days (Rvb =+ 36.5 +/- 10 g); format: functional
Rattus norvegicus [6] = test: Antagonist activity at glucocorticoid receptor in Sprague-Dawley rat assessed as change in olanzapine-induced weight gain at 2 mg/kg/day, po administered as divided doses twice daily for 21 days (Rvb =+ 36.5 +/- 10 g); format: functional
Liver microsomes [7] = test: Metabolic stability in human liver microsomes; format: ADME, Microsome
Cytochrome P450 2C9 = Cytochrome P450 2C9 (Homo sapiens, UniProt P11712); test: Inhibition of human CYP2C9; format: ADME
Cytochrome P450 2C19 = Cytochrome P450 2C19 (Homo sapiens, UniProt P33261); test: Inhibition of human CYP2C19; format: ADME
Rattus norvegicus [8] = test: Antagonist activity at glucocorticoid receptor in Sprague-Dawley rat assessed as change in olanzapine-induced weight gain at 10 mg/kg/day, po administered as divided doses twice daily for 21 days (Rvb =+ 36.5 +/- 10 g); format: functional
Liver microsomes [9] = test: Metabolic stability in rat liver microsomes; format: ADME, Microsome
[10] = Plasma protein binding in human; format: ADME, cell-free; conditions: read-out: PPB
[11] = Oral bioavailability in rat at 5 mg/kg; format: ADME, organism-based; conditions: in vivo
[12] = Plasma protein binding in rat; format: ADME, cell-free; conditions: read-out: PPB
Rattus norvegicus [13] = test: Antagonist activity at glucocorticoid receptor in Sprague-Dawley rat assessed as change in olanzapine-induced weight gain at 0.2 mg/kg/day, po administered as divided doses twice daily for 21 days (Rvb =+ 36.5 +/- 10 g); format: functional
[14] = Clearance in rat at 1 mg/kg, iv; format: ADME, organism-based; set-up: dose 1 mg/kg, route intravenous; conditions: in vivo
Liver = test: Metabolic stability in human liver microsomes

Cytochrome P450 3A4, sequence (P08684 whole entry): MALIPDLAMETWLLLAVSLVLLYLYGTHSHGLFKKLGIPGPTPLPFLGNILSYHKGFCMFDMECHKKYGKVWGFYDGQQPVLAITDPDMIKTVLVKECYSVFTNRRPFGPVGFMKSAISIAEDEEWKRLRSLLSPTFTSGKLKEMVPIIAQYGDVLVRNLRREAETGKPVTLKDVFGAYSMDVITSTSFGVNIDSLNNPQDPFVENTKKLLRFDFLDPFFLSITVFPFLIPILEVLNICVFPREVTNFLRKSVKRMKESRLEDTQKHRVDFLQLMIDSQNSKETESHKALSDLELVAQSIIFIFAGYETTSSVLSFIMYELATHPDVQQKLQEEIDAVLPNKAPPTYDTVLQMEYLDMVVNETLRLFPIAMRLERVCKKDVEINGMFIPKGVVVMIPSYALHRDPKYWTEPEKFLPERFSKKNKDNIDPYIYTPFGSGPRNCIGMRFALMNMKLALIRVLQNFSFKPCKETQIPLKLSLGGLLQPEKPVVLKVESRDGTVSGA
Cytochrome P450 2C19, sequence (P33261 whole entry): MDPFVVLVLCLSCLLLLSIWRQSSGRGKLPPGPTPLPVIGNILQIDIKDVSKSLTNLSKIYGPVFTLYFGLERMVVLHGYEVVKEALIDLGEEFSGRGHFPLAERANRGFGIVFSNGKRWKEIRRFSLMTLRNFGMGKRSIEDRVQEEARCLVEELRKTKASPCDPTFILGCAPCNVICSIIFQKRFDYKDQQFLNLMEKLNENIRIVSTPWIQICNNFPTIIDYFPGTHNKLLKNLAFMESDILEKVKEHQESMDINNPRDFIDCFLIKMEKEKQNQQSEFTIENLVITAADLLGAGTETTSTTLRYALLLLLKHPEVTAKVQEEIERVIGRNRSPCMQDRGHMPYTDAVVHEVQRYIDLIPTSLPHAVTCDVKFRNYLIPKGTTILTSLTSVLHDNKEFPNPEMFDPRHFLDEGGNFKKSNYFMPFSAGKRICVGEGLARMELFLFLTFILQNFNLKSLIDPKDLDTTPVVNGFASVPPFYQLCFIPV
Cytochrome P450 2C9, sequence (P11712 whole entry): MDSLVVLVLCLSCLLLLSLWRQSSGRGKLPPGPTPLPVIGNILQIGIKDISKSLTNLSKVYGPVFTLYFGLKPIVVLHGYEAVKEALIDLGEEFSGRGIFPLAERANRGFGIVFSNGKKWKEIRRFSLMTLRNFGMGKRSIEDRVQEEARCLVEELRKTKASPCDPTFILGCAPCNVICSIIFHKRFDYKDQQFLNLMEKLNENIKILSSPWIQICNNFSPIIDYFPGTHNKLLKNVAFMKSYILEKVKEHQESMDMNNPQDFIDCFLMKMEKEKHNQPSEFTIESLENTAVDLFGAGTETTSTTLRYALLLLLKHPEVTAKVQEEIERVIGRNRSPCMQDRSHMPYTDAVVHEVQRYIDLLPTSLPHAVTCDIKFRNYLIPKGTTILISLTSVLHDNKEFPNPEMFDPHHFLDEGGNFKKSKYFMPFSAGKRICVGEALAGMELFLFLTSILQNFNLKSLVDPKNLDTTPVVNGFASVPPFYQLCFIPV
Cytochrome P450 2D6, sequence (P10635 whole entry): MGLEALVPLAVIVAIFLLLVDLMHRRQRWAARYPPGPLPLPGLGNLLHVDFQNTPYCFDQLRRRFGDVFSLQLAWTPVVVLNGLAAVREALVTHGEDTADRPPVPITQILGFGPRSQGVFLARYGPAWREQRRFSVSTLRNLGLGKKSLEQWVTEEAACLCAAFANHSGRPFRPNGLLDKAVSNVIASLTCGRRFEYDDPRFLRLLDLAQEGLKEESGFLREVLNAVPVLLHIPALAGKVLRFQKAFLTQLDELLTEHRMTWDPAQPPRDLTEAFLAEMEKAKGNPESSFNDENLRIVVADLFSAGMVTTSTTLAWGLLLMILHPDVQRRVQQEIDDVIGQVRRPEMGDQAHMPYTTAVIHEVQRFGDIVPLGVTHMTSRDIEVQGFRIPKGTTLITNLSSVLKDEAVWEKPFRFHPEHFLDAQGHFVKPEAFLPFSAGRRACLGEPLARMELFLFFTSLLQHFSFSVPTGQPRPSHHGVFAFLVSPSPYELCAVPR

Row | SMILES | Ki (Glucocorticoid receptor [1]) [µM] | Ki (Glucocorticoid receptor [2]) [µM] | other results
1 | COCCn1c(=O)[nH]c([C@H]2CC[C@@H](c3ccccc3)CC2)c(Cc2cccc(C(F)(F)F)c2)c1=O | > 0.05 | – | –
2 | O=c1[nH]c(=O)c(Cc2ccccc2)c([C@H]2CC[C@@H](c3ccccc3)CC2)[nH]1 | 0.032 | – | –
3 | CCc1ccccc1Cc1c(=O)[nH]c(=O)[nH]c1[C@H]1CC[C@@H](c2ccccc2)CC1 | 0.019 | 0.078 | –
4 | CS(=O)(=O)c1ccccc1Cc1c(=O)[nH]c(=O)[nH]c1[C@H]1CC[C@@H](c2ccccc2)CC1 | 0.557 | – | –
5 | O=c1[nH]c(=O)c(Cc2ccc(Cl)cc2Cl)c([C@H]2CC[C@@H](c3ccccc3)CC2)[nH]1 | 0.011 | 0.044 | –
6 | O=c1[nH]c(=O)c(Cc2c(Cl)cccc2Cl)c([C@H]2CC[C@@H](c3ccccc3)CC2)[nH]1 | 0.011 | 0.067 | –
7 | O=c1[nH]c(=O)c(Cc2ccccn2)c([C@H]2CC[C@@H](c3ccccc3)CC2)[nH]1 | 0.188 | 0.337 | –
8 | O=c1[nH]c(=O)c(Cc2ncccn2)c([C@H]2CC[C@@H](c3ccccc3)CC2)[nH]1 | 0.4 | > 3 | –
9 | O=c1[nH]c(=O)c(Cc2ncccc2Cl)c([C@H]2CC[C@@H](c3ccccc3)CC2)[nH]1 | 0.049 | 0.116 | –
10 | Cc1cc(Cc2c(=O)[nH]c(=O)[nH]c2[C@H]2CC[C@@H](c3ccccc3)CC2)ccn1 | > 0.05 | > 3 | –
11 | O=c1[nH]c(=O)c(Cc2nccs2)c([C@H]2CC[C@@H](c3ccccc3)CC2)[nH]1 | 0.139 | > 0.3 | –
12 | Cc1csc(Cc2c(=O)[nH]c(=O)[nH]c2[C@H]2CC[C@@H](c3ccccc3)CC2)n1 | 0.028 | 0.119 | –
13 | Cn1nccc1Cc1c(=O)[nH]c(=O)[nH]c1[C@H]1CC[C@@H](c2ccccc2)CC1 | > 1.5 | > 3 | –
14 | Cc1cccc(Cc2c(=O)[nH]c(=O)[nH]c2[C@H]2CC[C@@H](c3ccccc3)CC2)n1 | 0.022 | 0.057 | –
15 | O=c1[nH]c(=O)c(Cc2cccc(C(F)(F)F)n2)c([C@H]2CC[C@@H](c3ccccc3)CC2)[nH]1 | 0.018 | 0.047 | –
16 | Cc1ccnc(Cc2c(=O)[nH]c(=O)[nH]c2[C@H]2CC[C@@H](c3ccccc3)CC2)c1 | 0.021 | 0.044 | –
17 | Cn1c(=O)[nH]c([C@H]2CC[C@@H](c3ccccc3)CC2)c(Cc2ccccc2)c1=O | 0.024 | 0.057 | –
18 | Cc1cccc(Cc2c(=O)n(C)c(=O)[nH]c2[C@H]2CC[C@@H](c3ccccc3)CC2)c1 | 0.019 | 0.039 | –
19 | Cn1c(=O)[nH]c([C@H]2CC[C@@H](c3ccccc3)CC2)c(Cc2cccc(C(F)(F)F)c2)c1=O | 0.016 | 0.162 | –
20 | O=c1[nH]c([C@H]2CC[C@@H](c3ccccc3)CC2)c(Cc2cccc(C(F)(F)F)c2)c(=O)n1CCO | 0.098 | > 3 | –

Stronger by Ki (Glucocorticoid receptor [1]), values ahead:

Row | Ki (Glucocorticoid receptor [1]) [µM] | Ki (Glucocorticoid receptor [2]) [µM] | SMILES | other results
21 | 0.004 | 0.044 | O=c1[nH]c(=O)c(Cc2ccccc2)c([C@H]2CC[C@H](c3ccccc3)CC2)[nH]1 | –
22 | 0.003 | 0.021 | Cc1cccc(Cc2c(=O)[nH]c(=O)[nH]c2[C@H]2CC[C@@H](c3ccccc3)CC2)c1 | –
23 | 0.007 | 0.037 | O=c1[nH]c(=O)c(Cc2ccccc2Cl)c([C@H]2CC[C@@H](c3ccccc3)CC2)[nH]1 | –
24 | 0.008 | 0.024 | O=c1[nH]c(=O)c(Cc2cccc(C(F)(F)F)c2)c([C@H]2CC[C@@H](c3ccccc3)CC2)[nH]1 | inhibition (INH) (Cytochrome P450 1A2): Not Active; half-life [3]: 1.8 h; Activity (Rattus norvegicus [4]): 9.8 g; inhibition (INH) (Cytochrome P450 3A4): Not Active; inhibition (INH) (Cytochrome P450 2D6): Not Active; Activity (Rattus norvegicus [5]): -23.6 g; Activity (Rattus norvegicus [6]): -10.2 g; Stability (Liver microsomes [7]): Stable; inhibition (INH) (Cytochrome P450 2C9): Not Active; inhibition (INH) (Cytochrome P450 2C19): Not Active; Activity (Rattus norvegicus [8]): -23.7 g; Stability (Liver microsomes [9]): Stable; fraction unbound [10]: < 0.001; bioavailability [11]: 20%; fraction unbound [12]: < 0.001; Activity (Rattus norvegicus [13]): 25.6 g; clearance [14]: 22 mL/min/kg
25 | 0.009 | 0.056 | COc1ccccc1Cc1c(=O)[nH]c(=O)[nH]c1[C@H]1CC[C@@H](c2ccccc2)CC1 | –
26 | 0.008 | 0.023 | O=c1[nH]c(=O)c(Cc2cc(Cl)ccc2Cl)c([C@H]2CC[C@@H](c3ccccc3)CC2)[nH]1 | –
27 | 0.005 | 0.025 | O=c1[nH]c(=O)c(Cc2cccc(Cl)c2Cl)c([C@H]2CC[C@@H](c3ccccc3)CC2)[nH]1 | –
28 | 0.009 | > 0.3 | Cc1cccc(Cc2c(=O)n(CCN(C)C)c(=O)[nH]c2[C@H]2CC[C@@H](c3ccccc3)CC2)c1 | –
29 | 0.008 | – | O=c1[nH]c(N2CCC(c3ccccc3)CC2)c(Cc2ccccc2)c(=O)[nH]1 | inhibition (INH) (Cytochrome P450 1A2): Not Active; inhibition (INH) (Cytochrome P450 3A4): Not Active; inhibition (INH) (Cytochrome P450 2D6): Not Active; inhibition (INH) (Cytochrome P450 2C9): Not Active; Stability (Liver): Stable; inhibition (INH) (Cytochrome P450 2C19): Not Active
